# Assay results published in US9156796B2, “Benzoimidazole-carboxylic acid amide derivatives as APJ receptor modulators” (SANOFI, priority 2013, dated 2015).
# Biological target: T1, human apelin receptor (Homo sapiens, UniProt P35414)
# T1 construct: expressed in transfected cells
# T1 sequence (P35414 1-380): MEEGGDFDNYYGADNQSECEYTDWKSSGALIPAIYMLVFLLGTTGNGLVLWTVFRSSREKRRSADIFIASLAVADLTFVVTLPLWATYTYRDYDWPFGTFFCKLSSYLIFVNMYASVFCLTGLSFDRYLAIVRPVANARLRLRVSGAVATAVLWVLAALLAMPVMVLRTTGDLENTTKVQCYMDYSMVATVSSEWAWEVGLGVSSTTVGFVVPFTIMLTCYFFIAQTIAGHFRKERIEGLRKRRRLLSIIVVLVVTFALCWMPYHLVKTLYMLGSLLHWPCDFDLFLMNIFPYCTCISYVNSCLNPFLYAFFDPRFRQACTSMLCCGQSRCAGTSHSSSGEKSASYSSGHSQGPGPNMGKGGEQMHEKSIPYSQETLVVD
# Experiment: Determination of agonism on the human apelin receptor by a calcium fluorescence assay (FLIPR)
# Format: cell-based
# Details: EC50 (APJ agonism), HEK293 cells stably transfected with human apelin receptor and Giaq protein, Fluo-4 calcium fluorescence
# Procedure, shortened: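 Agonist EC50s come from peak intracellular calcium transients recorded by FLIPR Tetra, scaled to the 1 μM apelin-13 maximum per plate. Test system: HEK293 stably transfected with human apelin receptor plus Giaq, Fluo-4-loaded (4 μM, 1 h, 37 °C, pH 7.4 buffer with probenecid); ≥7 concentrations, triplicates.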
row,Compound,EC50 [µM]
1,"CCCCC(CO)NC(=O)c1ccc2c(c1)nc(CC1CCCC1)n2C(CC)CC (stereo not shown) [Example 182, 2-Cyclopentylmethyl-1-(1-ethyl-propyl)-1H-benzoimidazole-5-carboxylic acid (1-hydroxymethyl-pentyl)-amide]",11

# Same assay, conditions: HEK293 cells stably transfected with human apelin receptor and Giaq protein, Fluo-4 calcium fluorescence, read-out: EC50 (APJ agonism)
row,Compound,EC50 [µM]
1,"CCC(CC)n1c(Cc2cccs2)nc2cc(C(=O)N[C@@H](CC(C)C)C(=O)N3C[C@H]4C[C@@H]3CN4Cc3ccccc3)ccc21 [Example 325, 1-(1-Ethyl-propyl)-2-thiophen-2-ylmethyl-1H-benzoimidazole-5-carboxylic acid [(S)-1-((1R,4R)-5-benzyl-2,5-diaza-bicyclo[2.2.1]heptane-2-carbonyl)-3-methyl-butyl]-amide]",4.41
2,"CCC(CC)n1c(Cc2cccs2)nc2cc(C(=O)N[C@@H](CC(C)C)C(=O)NCCCN3CCCC(C)C3)ccc21 (stereo partly drawn) [Example 339, 1-(1-Ethyl-propyl)-2-thiophen-2-ylmethyl-1H-benzoimidazole-5-carboxylic acid {(S)-3-methyl-1-[3-(3-methyl-piperidin-1-yl)-propylcarbamoyl]-butyl}-amide]",0.444
3,"CCC(CC)n1c(Cc2cccs2)nc2cc(C(=O)N[C@@H](CC(C)C)C(=O)NC3CCN(Cc4ccccc4)CC3)ccc21 [Example 313, 1-(1-Ethyl-propyl)-2-thiophen-2-ylmethyl-1H-benzoimidazole-5-carboxylic acid [(S)-1-(1-benzyl-piperidin-4-ylcarbamoyl)-3-methyl-butyl]-amide]",1.89
4,"CCC(CC)n1c(Cc2cccs2)nc2cc(C(=O)NC(C)(Cc3ccccc3)C(=O)O)ccc21 (stereo not shown) [Example 4, 2-{[1-(1-Ethyl-propyl)-2-thiophen-2-ylmethyl-1H-benzoimidazole-5-carbonyl]-amino}-2-methyl-3-phenyl-propionic acid]",16.8
5,"CCC(CC)n1c(Cc2cccs2)nc2cc(C(=O)N[C@@H](CC(C)C)C(=O)NCCCN3CCN(C)CC3)ccc21 [Example 227, 1-(1-Ethyl-propyl)-2-thiophen-2-ylmethyl-1H-benzoimidazole-5-carboxylic acid {(S)-3-methyl-1-[3-(4-methyl-piperazin-1-yl)-propylcarbamoyl]-butyl}-amide]",0.287
6,"CCC(CC)n1c(Cc2cccs2)nc2cc(C(=O)N[C@H](C(=O)O)[C@H](C)CC)ccc21 [Example 153, (2S,3R)-2-{[1-(1-Ethyl-propyl)-2-thiophen-2-ylmethyl-1H-benzoimidazole-5-carbonyl]-amino}-3-methyl-pentanoic acid]",0.35
7,"CCC(CC)n1c(Cc2cccs2)nc2cc(C(=O)N[C@@H](Cc3ccc(F)cc3)C(=O)O)ccc21 [Example 19, (S)-2-{[1-(1-Ethyl-propyl)-2-thiophen-2-ylmethyl-1H-benzoimidazole-5-carbonyl]-amino}-3-(4-fluoro-phenyl)-propionic acid]",5.03
8,"CCC(CC)n1c(Cc2cccs2)nc2cc(C(=O)N[C@@H](CC(C)C)C(=O)NCc3ncco3)ccc21 [Example 254, 1-(1-Ethyl-propyl)-2-thiophen-2-ylmethyl-1H-benzoimidazole-5-carboxylic acid {(S)-3-methyl-1-[(oxazol-2-ylmethyl)-carbamoyl]-butyl}-amide]",0.233
9,"CCC(CC)n1c(Cc2cccs2)nc2cc(C(=O)N[C@H](CO)CC3CCCCC3)ccc21 [Example 177, 1-(1-Ethyl-propyl)-2-thiophen-2-ylmethyl-1H-benzoimidazole-5-carboxylic acid ((S)-1-cyclohexylmethyl-2-hydroxy-ethyl)-amide]",2.42
10,"CCC(CC)n1c(Cc2cccs2)nc2cc(C(=O)N[C@@H](CC(C)C)C(=O)NCCCOCc3ccccc3)ccc21 [Example 389, 1-(1-Ethyl-propyl)-2-thiophen-2-ylmethyl-1H-benzoimidazole-5-carboxylic acid [(S)-1-(3-benzyloxy-propylcarbamoyl)-3-methyl-butyl]-amide]",17.1
11,"CCC(CC)n1c(Cc2cccs2)nc2cc(C(=O)N[C@@H](CC(C)C)C(=O)N3CC4CC3CN4CC)ccc21 (stereo partly drawn) [Example 347, 1-(1-Ethyl-propyl)-2-thiophen-2-ylmethyl-1H-benzoimidazole-5-carboxylic acid [(S)-1-(5-ethyl-2,5-diaza-bicyclo[2.2.1]heptane-2-carbonyl)-3-methyl-butyl]-amide]",0.809
12,"CCC(CC)n1c(Cc2ccccc2)nc2cc(C(=O)N[C@H](CC(=O)O)CC(C)C)ccc21 [Example 157, (S)-3-{[2-Benzyl-1-(1-ethyl-propyl)-1H-benzoimidazole-5-carbonyl]-amino}-5-methyl-hexanoic acid]",10
13,"CCC(CC)n1c(Cc2cccs2)nc2cc(C(=O)N[C@@H](CC(C)C)C(=O)N[C@@H](C)c3ccc(OC)cc3)ccc21 [Example 247, 1-(1-Ethyl-propyl)-2-thiophen-2-ylmethyl-1H-benzoimidazole-5-carboxylic acid {(S)-1-[(S)-1-(4-methoxy-phenyl)-ethylcarbamoyl]-3-methyl-butyl}-amide]",7.22
14,"CCCC(CC(=O)O)NC(=O)c1ccc2c(c1)nc(Cc1cccs1)n2C(CC)CC (stereo not shown) [Example 155, 3-{[1-(1-Ethyl-propyl)-2-thiophen-2-ylmethyl-1H-benzoimidazole-5-carbonyl]-amino}-hexanoic acid]",0.5
15,"CCC(CC)n1c(Cc2cccs2)nc2cc(C(=O)N[C@@H](CC(C)C)C(=O)NCc3ccc(N(C)C)cc3)ccc21 [Example 266, 1-(1-Ethyl-propyl)-2-thiophen-2-ylmethyl-1H-benzoimidazole-5-carboxylic acid [(S)-1-(4-dimethylamino-benzylcarbamoyl)-3-methyl-butyl]-amide]",2.72
16,"CCC(CC)n1c(Cc2cccs2)nc2cc(C(=O)N[C@@H](CC(C)C)C(=O)NCc3ccccc3)ccc21 [Example 220, 1-(1-Ethyl-propyl)-2-thiophen-2-ylmethyl-1H-benzoimidazole-5-carboxylic acid ((S)-1-benzylcarbamoyl-3-methyl-butyl)-amide]",2.86

# Next, values leading:
row,EC50 [µM],Compound
1,0.157,"CCCCC(CC(=O)O)NC(=O)c1ccc2c(c1)nc(Cc1cccs1)n2[C@@H]1CCCC[C@H]1C (stereo partly drawn) [Example 56, 3-{[1-((1R,2R)-2-Methyl-cyclohexyl)-2-thiophen-2-ylmethyl-1H-benzoimidazole-5-carbonyl]-amino}-heptanoic acid]"
2,12,"CCC(C)n1c(Cc2ccsc2)nc2cc(C(=O)N[C@@H](CC(C)C)C(=O)O)ccc21 (stereo partly drawn) [Example 142, (S)-2-[(1-sec-Butyl-2-thiophen-3-ylmethyl-1H-benzoimidazole-5-carbonyl)-amino]-4-methyl-pentanoic acid]"
3,0.313,"CC(C)C[C@H](NC(=O)c1ccc2c(c1)nc(Cc1ccco1)n2C1CCCCC1C)C(=O)O (single isomer, unassigned) [Example 419]"
4,0.341,"CCC(CC)n1c(Cc2cccs2)nc2cc(C(=O)N[C@@H](CC(C)C)C(=O)NCCC3CCCCN3C)ccc21 (stereo partly drawn) [Example 289, 1-(1-Ethyl-propyl)-2-thiophen-2-ylmethyl-1H-benzoimidazole-5-carboxylic acid {(S)-3-methyl-1-[2-(1-methyl-piperidin-2-yl)-ethylcarbamoyl]-butyl}-amide]"
5,0.419,"CCC(CC)n1c(Cc2ccsc2)nc2cc(C(=O)N[C@@H](CC(C)C)C(=O)O)ccc21 [Example 117, (S)-2-{[1-(1-Ethyl-propyl)-2-thiophen-3-ylmethyl-1H-benzoimidazole-5-carbonyl]-amino}-4-methyl-pentanoic acid]"
6,8.81,"CCC(CC)n1c(Cc2cccs2)nc2cc(C(=O)NC(CC3CCC(C)(C)CC3)C(=O)O)ccc21 (single isomer, unassigned) [Example 445]"
7,0.101,"CC(C)C[C@H](NC(=O)c1ccc2c(c1)nc(Cc1cccs1)n2[C@@H]1CCCC[C@H]1C)[C@@H](O)CC(=O)O [Example 78, (3S,4S)-3-Hydroxy-6-methyl-4-{[1-((1R,2R)-2-methyl-cyclohexyl)-2-thiophen-2-ylmethyl-1H-benzoimidazole-5-carbonyl]-amino}-heptanoic acid]"
8,0.266,"CC(C)C[C@H](NC(=O)c1ccc2c(c1)nc(Cc1cccs1)n2C1CCCC1C)C(=O)O (single isomer, unassigned) [Example 428]"
9,1.14,"CCC(CC)n1c(Cc2cccs2)nc2cc(C(=O)NC(CC3CCCCCC3)C(=O)O)ccc21 (stereo not shown) [Example 39, 3-Cycloheptyl-2-{[1-(1-ethyl-propyl)-2-thiophen-2-ylmethyl-1H-benzoimidazole-5-carbonyl]-amino}-propionic acid]"
10,0.407,"CCC(CC)n1c(Cc2cccs2)nc2cc(C(=O)N[C@@H](CC(C)C)C(=O)NC3CCOCC3)ccc21 [Example 249, 1-(1-Ethyl-propyl)-2-thiophen-2-ylmethyl-1H-benzoimidazole-5-carboxylic acid [(S)-3-methyl-1-(tetrahydro-pyran-4-ylcarbamoyl)-butyl]-amide]"
11,0.328,"CC(C)C[C@H](NC(=O)c1ccc2c(c1)nc(Cc1cccs1)n2C1CCCCC1C)C(=O)O (stereo partly drawn) [Example 146, (S)-4-Methyl-2-{[1-(2-methyl-cyclohexyl)-2-thiophen-2-ylmethyl-1H-benzoimidazole-5-carbonyl]-amino}-pentanoic acid]"
